Biological target: T1, PLK1 (Serine/threonine-protein kinase PLK1) (Homo sapiens, UniProt P53350)
T1 construct: Native kinases; endogenous in cells; host or cells: HEK293T soluble proteome
Test: SILAC LC-MS ATP acyl phosphate probe competition, native kinases in HEK293T
Type: binding
Details: site Lys1; ATP 1 mM; Ketanserin, Ritanserin 100 μM; RF001 1 mM
Procedure: Proteomes were diluted to 2 mg/ml in kinase buffer. The light and heavy proteomes (0.5 mg, 250 μL total reaction volume) were pre-treated with vehicle or compound, respectively (5 μL, DMSO (light) or 50× stock in DMSO (heavy)), mixed gently, and incubated at 25° C. for 30 min. […] After incubation, matched light and heavy proteomes were transferred and mixed in a 1:1 ratio in a two-dram vial containing 4:1:3 MeOH/CHCl3/H2O (2 mL MeOH, 500 AL CHCl3, 1.5 mL H2O) for extraction of proteins to remove excess probe, quickly vortexed, and centrifuged at 1,400×g for 3 min to pellet protein. Organic and aqueous layers were removed using a Pasteur pipette, and the protein pellet was transferred to a screw-top tube in 600 μL MeOH. A second extraction was performed by adding CHCl3 (150 μL) and H2O (600 μL) to each sample, vortexed, and centrifuged at 1,400×g for 3 min to pellet protein. Organic and aqueous layers were removed by pipetting. MeOH added to pellet (600 μL) and pellets were re-suspended by sonication (3×1 sec pulse, 20% amplitude) for a final extraction. Samples were then centrifuged at 17,000×g for 5 min to pellet protein and MeOH was removed by pipetting. […] To desalt the samples, each was transferred to a two-dram glass vial, and to the vial 4:1:2 MeOH/CHCl3/H2O (2 mL MeOH, 500 AL CHCl3, 1 mL H2O) was added. The vials were vortexed quickly, spun at 1.400×g for 3 min to pellet protein, and aqueous and organic layers were removed using a Pasteur pipette. The resulting protein pellet was transferred to a screw-top tube in 600 μL MeOH, and then CHCl3 (150 μL) and HO (600 μL) were added to extract protein a second time. The samples were vortexed quickly, centrifuged at 1,400×g to pellet protein, and the aqueous and organic layers were removed by pipetting. Resulting protein pellet was suspended in MeOH (600 μL) via sonication (3×1 sec pulse, 20% amplitude), centrifuged at 17,000×g for 5 min to pellet protein, and MeOH removed by pipetting. […]

T1 sequence (P53350 whole entry): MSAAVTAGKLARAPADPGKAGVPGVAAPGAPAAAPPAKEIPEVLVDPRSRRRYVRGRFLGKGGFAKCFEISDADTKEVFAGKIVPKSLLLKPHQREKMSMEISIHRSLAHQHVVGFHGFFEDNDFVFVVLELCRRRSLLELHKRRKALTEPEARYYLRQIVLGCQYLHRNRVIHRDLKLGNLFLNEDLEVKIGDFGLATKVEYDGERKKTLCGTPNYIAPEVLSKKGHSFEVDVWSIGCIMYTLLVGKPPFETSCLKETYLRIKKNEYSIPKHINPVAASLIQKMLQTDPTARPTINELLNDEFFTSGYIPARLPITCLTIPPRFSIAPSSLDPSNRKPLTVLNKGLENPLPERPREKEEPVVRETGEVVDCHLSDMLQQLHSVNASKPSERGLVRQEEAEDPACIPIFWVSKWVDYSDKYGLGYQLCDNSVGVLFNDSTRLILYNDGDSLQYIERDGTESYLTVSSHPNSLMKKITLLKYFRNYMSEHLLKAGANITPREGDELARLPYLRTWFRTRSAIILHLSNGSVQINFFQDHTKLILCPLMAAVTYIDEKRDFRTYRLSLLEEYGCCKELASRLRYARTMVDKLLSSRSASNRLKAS

SMILES	SILAC ratio, PLK1 probe-modified peptide
O=C(c1ccc(F)cc1)C1CCN(CCn2c(=O)[nH]c3ccccc3c2=O)CC1 [Ketanserin]	1.0
Fc1ccc(C(=C2CCNCC2)c2ccc(F)cc2)cc1 [RF001, 4-(Bis(4-fluorophenyl)methylene) piperidine]	0.9
Cc1nc2sccn2c(=O)c1CCN1CCC(=C(c2ccc(F)cc2)c2ccc(F)cc2)CC1 [Ritanserin]	1.5
